The source of these data is US11986532B2 (Arvinas Operations, Inc., priority 2021, dated 2024).

The assay addresses T1, BCL6 (Homo sapiens, UniProt P41182).
T1 construct: endogenous in cells; host or cells: T47D breast cancer epithelial cells
The assay is described as follows: Immunofluorescence protocol for high content imaging of BCL6 (degradation) in T47D cells, 3 days compound treatment. The format is cell-based. As to conditions: for Dmax: T47D, read-out: Mean Dmax (%)** category; for DC50: read-out: Mean DC50 (nM)* category. The method in brief: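 T47D, RPMI1640/10% FBS; cpd 11-pt 3-fold, top 0.1 or 1 μM final; 3 d, 37° C. Fix 4% PFA, perm 0.1% Triton, block 3% BSA; anti-BCL6 1:300 o/n 4° C; Alexa-488 2°, CellMask-647, Hoechst. Imaged 10×, 4 fields/well.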

The term Dmax denotes the largest share of the target that was removed. For orientation: DC50 means the concentration at which degradation of the target reaches its halfway point. Take `CNC(=O)COc1cc2cc(Nc3nc(N4CCC(O[C@H]5C[C@H](N6CC7(CN(c8ccc9c(c8C)C(=O)N(C8CCC(=O)NC8=O)C9=O)C7)C6)C5)CC4)ncc3Cl)ccc2n(C(C)C)c1=O` (stereo partly drawn) [Compound 420, 2-({6-[(5-chloro-2-{4-[(1r,3r)-3-{6-[2-(2,6-dioxopiperidin-3-yl)-4-methyl-1,3-dioxo-2,3-dihydro-1H-isoindol-5-yl]-2,6-diazaspiro[3.3]heptan-2-yl}cyclobutoxy]piperidin-1-yl}pyrimidin-4-yl)amino]-2-oxo-1-(propan-2-yl)-1,2-dihydroquinolin-3-yl}oxy)-N-methylacetamide]: the Dmax was not below 70% and the DC50 is less than 10 nM.

For the compound `CNC(=O)COc1cc2c(F)c(Nc3nc(N4CCC(CN5CCC6(CC5)CC5(CN(c7ccc8c(c7)CN(C7CCC(=O)NC7=O)C8=O)C5)C6)CC4)ncc3Cl)ccc2n(C(C)C)c1=O` (stereo not drawn) [Compound 421, 2-{[6-({5-chloro-2-[4-({2-[2-(2,6-dioxopiperidin-3-yl)-1-oxo-2,3-dihydro-1H-isoindol-5-yl]-2,9-diazadispiro [3.1.56.14]dodecan-9-yl}methyl)piperidin-1-yl]pyrimidin-4-yl}amino)-5-fluoro-2-oxo-1-(propan-2-yl)-1,2-dihydroquinolin-3-yl]oxy}-N-methylacetamide], the Dmax was not below 70% and the DC50 was less than 10 nM.

For `CNC(=O)COc1cc2cc(Nc3nc(N4CCC(O[C@H]5C[C@H](N6CCN(C7CN(c8ccc9c(c8F)CN(C8CCC(=O)NC8=O)C9=O)C7)CC6)C5)CC4)ncc3Cl)ccc2n(C(C)C)c1=O` (stereo partly drawn) [Compound 422, 2-({6-[(5-chloro-2-{4-[(1r,3r)-3-(4-{1-[2-(2,6-dioxopiperidin-3-yl)-4-fluoro-1-oxo-2,3-dihydro-1H-isoindol-5-yl]azetidin-3-yl}piperazin-1-yl)cyclobutoxy]piperidin-1-yl}pyrimidin-4-yl)amino]-2-oxo-1-(propan-2-yl)-1,2-dihydroquinolin-3-yl}oxy)-N-methylacetamide], the greatest degradation seen (Dmax) is not below 70% and the DC50 is less than 10 nM.

Take `CNC(=O)COc1cc2cc(Nc3nc(N4CCC(O[C@H]5C[C@H](N6CCN(c7cc8c(cc7OC)C(=O)N(C7CCC(=O)NC7=O)C8=O)CC6)C5)CC4)ncc3Cl)ccc2n(C(C)C)c1=O` (stereo partly drawn) [Compound 423, 2-({6-[(5-chloro-2-{4-[(1r,3r)-3-{4-[2-(2,6-dioxopiperidin-3-yl)-6-methoxy-1,3-dioxo-2,3-dihydro-1H-isoindol-5-yl]piperazin-1-yl}cyclobutoxy]piperidin-1-yl}pyrimidin-4-yl)amino]-2-oxo-1-(propan-2-yl)-1,2-dihydroquinolin-3-yl}oxy)-N-methylacetamide]: the Dmax was not below 70% and the DC50 was less than 10 nM.

Take `CCC(C)n1c(=O)c(OCC(=O)NC)cc2cc(Nc3nc(N4CCC(O[C@H]5C[C@H](N6CCC(c7ccc8c(c7F)CN(C7CCC(=O)NC7=O)C8=O)CC6)C5)CC4)ncc3Cl)ccc21` (stereo partly drawn) [Compound 424, 2-{[1-(butan-2-yl)-6-[(5-chloro-2-{4-[(1r,3r)-3-{4-[2-(2,6-dioxopiperidin-3-yl)-4-fluoro-1-oxo-2,3-dihydro-1H-isoindol-5-yl]piperidin-1-yl}cyclobutoxy]piperidin-1-yl}pyrimidin-4-yl)amino]-2-oxo-1,2-dihydroquinolin-3-yl]oxy}-N-methylacetamide]: the Dmax was not below 70% and the DC50 was less than 10 nM.

For `CNC(=O)COc1cc2cc(Nc3nc(N4CCC(O[C@H]5C[C@H](N6CCC(c7ccc8c(c7F)CN(C7CCC(=O)NC7=O)C8=O)CC6)C5)CC4)ncc3Cl)ccc2n(CC(C)C)c1=O` (stereo partly drawn) [Compound 425, 2-({6-[(5-chloro-2-{4-[(1r,3r)-3-{4-[2-(2,6-dioxopiperidin-3-yl)-4-fluoro-1-oxo-2,3-dihydro-1H-isoindol-5-yl]piperidin-1-yl}cyclobutoxy]piperidin-1-yl}pyrimidin-4-yl)amino]-1-(2-methylpropyl)-2-oxo-1,2-dihydroquinolin-3-yl}oxy)-N-methylacetamide], the Dmax was not below 70% and the DC50 is less than 10 nM.

Regarding `CNC(=O)COc1cc2cc(Nc3nc(N4CCC(O[C@H]5C[C@H](N6CC=C(c7ccc8c(c7F)CN(C7CCC(=O)NC7=O)C8=O)CC6)C5)CC4)ncc3Cl)ccc2n(C(C)C)c1=O` (stereo partly drawn) [Compound 426, 2-({6-[(5-chloro-2-{4-[(1r,3r)-3-{4-[2-(2,6-dioxopiperidin-3-yl)-4-fluoro-1-oxo-2,3-dihydro-1H-isoindol-5-yl]-1,2,3,6-tetrahydropyridin-1-yl}cyclobutoxy]piperidin-1-yl}pyrimidin-4-yl)amino]-2-oxo-1-(propan-2-yl)-1,2-dihydroquinolin-3-yl}oxy)-N-methylacetamide], the Dmax was not below 70% and the DC50 was less than 10 nM.

Turning to `CNC(=O)COc1cc2cc(Nc3nc(N4CCC(CN5CCC6(CC5)CC5(CN(c7ccc8c(c7F)CN(C7CCC(=O)NC7=O)C8=O)C5)C6)CC4)ncc3Cl)ccc2n(C(C)C)c1=O` (stereo not drawn) [Compound 427], the Dmax is not below 70% and the DC50 is less than 10 nM.

Turning to `CNC(=O)COc1cc2cc(Nc3nc(N4CCC(O[C@H]5C[C@H](N6CC=C(c7ccc8c(c7Cl)CN([C@H]7CCC(=O)NC7=O)C8=O)CC6)C5)CC4)ncc3Cl)ccc2n(C(C)C)c1=O` [Compound 428], the Dmax was not below 70% and the DC50 is less than 10 nM.

Turning to `CNC(=O)COc1cc2cc(Nc3nc(N4CCC(O[C@H]5C[C@H](N6CC=C(c7ccc8c(c7Cl)CN(C7CCC(=O)NC7=O)C8=O)CC6)C5)CC4)ncc3Cl)ccc2n(C(C)C)c1=O` (stereo partly drawn) [Compound 429, 2-({6-[(5-chloro-2-{4-[(1r,3r)-3-{4-[4-chloro-2-(2,6-dioxopiperidin-3-yl)-1-oxo-2,3-dihydro-1H-isoindol-5-yl]-1,2,3,6-tetrahydropyridin-1-yl}cyclobutoxy]piperidin-1-yl}pyrimidin-4-yl)amino]-2-oxo-1-(propan-2-yl)-1,2-dihydroquinolin-3-yl}oxy)-N-methylacetamide], the Dmax was not below 70% and the DC50 is less than 10 nM.

In the case of `CNC(=O)COc1cc2cc(Nc3nc(N4CCC(O[C@H]5C[C@H](N6CC[C@@H](c7ccc8c(c7F)CN(C7CCC(=O)NC7=O)C8=O)C(C)(C)C6)C5)CC4)ncc3Cl)ccc2n(C(C)C)c1=O` (stereo partly drawn) [Compound 430, 2-({6-[(5-chloro-2-{4-[(1r,3r)-3-[(4R)-4-[2-(2,6-dioxopiperidin-3-yl)-4-fluoro-1-oxo-2,3-dihydro-1H-isoindol-5-yl]-3,3-dimethylpiperidin-1-yl]cyclobutoxy]piperidin-1-yl}pyrimidin-4-yl)amino]-2-oxo-1-(propan-2-yl)-1,2-dihydroquinolin-3-yl}oxy)-N-methylacetamide], the Dmax was not below 70% and the DC50 was less than 10 nM.

Take `CNC(=O)COc1cc2cc(Nc3nc(N4CCC(O[C@H]5C[C@H](N6CC[C@H](c7ccc8c(c7F)CN(C7CCC(=O)NC7=O)C8=O)C(C)(C)C6)C5)CC4)ncc3Cl)ccc2n(C(C)C)c1=O` (stereo partly drawn) [Compound 431, 2-({6-[(5-chloro-2-{4-[(1r,3r)-3-[(4S)-4-[2-(2,6-dioxopiperidin-3-yl)-4-fluoro-1-oxo-2,3-dihydro-1H-isoindol-5-yl]-3,3-dimethylpiperidin-1-yl]cyclobutoxy]piperidin-1-yl}pyrimidin-4-yl)amino]-2-oxo-1-(propan-2-yl)-1,2-dihydroquinolin-3-yl}oxy)-N-methylacetamide]: the Dmax was not below 70% and the DC50 is less than 10 nM.
